One data set concerns NRK-52E cells. The data set is described as follows: CellTiter-Glo cytotoxicity assay (KE3). The data set is classed as cell-based, rat. The note with it: for BMC10, KE3: in vitro POD from KE dose-response, cell viability CellTiter-Glo, NRK-52E, 24 h treatment, n = 3; for MOE, KE3: margin of exposure: BMC10 in NRK-52E vs rat plasma/serum concentration (cmax or css). The procedure:
Cells were plated into 96-well tissue culture plates (10,000 cells per well) and were allowed to grow for 48 h (NRK-52E) respectively 10 d (RPTEC/TERT1) prior to 24 h treatment with model stressors. Stock solution for each compound (2000 µM) was prepared in growth medium and serial dilutions (1:1) were made before each experiment. At the end of the 24 h treatment, cell viability was measured using the CellTiter-Glo® assay (Promega). CellTiter-Glo® reagents and buffer were mixed under light-protected conditions and 100 µL CellTiter-Glo® solution was added directly to each well followed by 2 min incubation on an orbital shaker and 10 min incubation at room temperature in the dark to stabilize the luminescence signal. The suspension was mixed via pipetting and 50 µL were transferred into white 96-well plates (PerkinElmer Inc.). The luminescence signal was measured on a multiplate reader (Mithras LB 940; Berthold). Each assay was performed in three independent experiments carried out in triplicates.
In general terms: Cellular ATP, detected with luciferase, serves as a proxy for viable cell number.

The next data set has as its system RPTEC/TERT1 cells. Description: LAMP-2 immunofluorescence (KE1, disturbance of lysosomal function). It is filed as cell-based, human. The settings on record: for BMC10, KE1: in vitro POD from KE dose-response, LAMP-2 intensity, RPTEC/TERT1, 24 h treatment, n = 3 independent experiments; for MOE, lowest across KEs: in vitro PODs in RPTEC/TERT1 vs human plasma concentrations at therapeutic doses; for MOE, KE1: margin of exposure: BMC10 in RPTEC/TERT1 vs human plasma/serum concentration (cmax or css). The procedure:
For immunocytochemistry experiments, cells were seeded into 8-well chamber slides (Ibidi) at a density of 140 cells per µL in 300 µL growth medium and were allowed to grow for 48 h (NRK-52E) or 10 d (RPTEC/TERT1) respectively. For treatment, stock solutions (1,000 µM) of compounds dissolved in growth medium were freshly prepared and serial dilutions were made before exposure of cells for 24 h. After treatment, cells were washed twice with 150 µL PBS and fixed with 150 µL 4% paraformaldehyde in 1 x PBS for 10 min at room temperature. After fixation, cells were washed 10 min with 150 µL PBS on an orbital shaker followed by permeabilization with 150 µL 0.2% Triton X-100 in 1 x PBS for 5 min at room temperature on an orbital shaker. The permeabilized cells were washed twice with 1 x PBS (150 µL) for 10 min at room temperature on an orbital shaker and then incubated with 150 µL 5% BSA dissolved in 1 x PBS for 1 h at room temperature to block unspecific binding sites. After blocking, 100 µL primary antibody diluted 1:100 in 1% BSA in 1 x PBS were directly pipetted onto the cells and incubated overnight at 4°C. The following antibodies were employed for NRK-52E cells: Anti-LAMP-1 monoclonal IgG1 kappa mouse antibody (Santa Cruz; sc-20011), anti-Cathepsin D mouse monoclonal IgG2 kappa antibody (Santa Cruz; sc-377124); for RPTEC/TERT1 cells: Anti-LAMP-2 monoclonal mouse antibody (Santa Cruz; sc-18822), anti-Cathepsin D mouse monoclonal IgG2b kappa (Novus Biologicals; NBP1-04278); for both cell lines anti-megalin mouse monoclonal IgG1 antibody (Santa Cruz, sc-515772).
After incubation with primary antibody, cells were washed three times for 15 min with 0.2% Tween in 1 x PBS (150 µL) on an orbital shaker. Cells were incubated for 1 h at room temperature with 100 µL CFL 488-conjugated mouse IgG kappa binding protein (1:50) (m-IgGκ BP-CFL 488; Santa Cruz, sc-516176). After incubation the cells were washed three times for 15 min with 0.2% Tween in 1 x PBS on an orbital shaker and once with 150 µL sterile water. Phalloidin-tetramethylrhodamine B isothiocyanate (TRITC) was used to stain the cytoskeleton and was diluted in 100% methanol to a stock concentration of 0.1 mg/ml and further diluted in 1 x PBS to a working concentration of 0.095 µM. After cells were washed once with 1 x PBS for 10 min at room temperature 150 µL phalloidin-TRITC working solution was added and the cells were incubated on an orbital shaker at room temperature for 60–90 min. After incubation, phalloidin-TRITC solution was aspirated, and the cells were washed once with 1 x PBS. Chamber slides were allowed to dry for 15 min at room temperature. To preserve fluorescence 50–100 µL DAPI mounting medium (Vectashield®; Vectorlab, Biozol) was added to the cells and chamber slides were stored at 4°C in the dark until image acquisition.
Images were taken with a TCS SP5 II confocal microscope with an HCX PL APO lambda blue 63.0 × 1.40 OIL UV objective (Leica Microsystems, Wetzlar, GER) (n = 10 cells/treatment group). The maximum excitation and emission settings for image acquisition were the following: Vectashield® antifade mounting medium with DAPI (λex 360 nm & λem 460 nm), for CFL 488-conjugated mouse IgG kappa binding protein (λex 490 nm & λem 525 nm) and phalloidin-TRITC (λex 545 nm & λem 573 nm). Before quantification, images were blinded and randomized. Quantification of fluorescence intensity was performed using NIH Image® software. Using the tool “Plot Profile” we generated a two-dimensional graph of the intensity of pixels along a reference line (6.35 µm) drawn across the cytoplasm of cells. The mean values of the pixel intensities were automatically calculated by the software and imported in Excel for further processing.

In the case of Colistin, in the data set on NRK-52E cells, the “BMC10, KE3” value was 135.5 µM and the “MOE, KE3” value was 13.0 – 26.6. In addition, in the data set on RPTEC/TERT1 cells, the “BMC10, KE1” value is listed as 4.3 µM; the “MOE, lowest across KEs” value was determined as 0.5; the “MOE, KE1” value was 0.5 – 10.2.

For the substance Polymyxin B, in the data set with NRK-52E cells, the “BMC10, KE3” value is 19.9 µM and the “MOE, KE3” value is given as 2.8. Also, in the data set on RPTEC/TERT1 cells, the “BMC10, KE1” value worked out at 4.2 µM; the “MOE, lowest across KEs” value was 1; the “MOE, KE1” value was 1.0 - 7.4.

The record behind these values is paper PMC9061999, “Application of the Adverse Outcome Pathway Concept to In Vitro Nephrotoxicity Assessment: Kidney Injury due to Receptor-Mediated Endocytosis and Lysosomal Overload as a Case Study” (Frontiers in Toxicology, 2022).
